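Briefly, cells in 96-well plates were exposed to five compound concentrations for 48 h, and endpoints were estimated by linear interpolation. GI50: concentration for 50% inhibition of growth. Definition used: TGI = concentration required for complete inhibition of growth.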
Legend:
Assay in all cases: NCI tumour cell line growth inhibition, 48 h
[1] = system: OVCAR-4 ovarian
[2] = system: OVCAR-5 ovarian
[3] = system: CAKI-1 renal
[4] = system: EKVX NSCLC
[5] = system: RXF 393 renal
[6] = system: HL-60(TB) leukemia
[7] = system: MDA-N
[8] = system: SR leukemia
[9] = system: IGROV1 ovarian

Row | SMILES | GI50 [1] | TGI [1] | GI50 [2] | TGI [2] | GI50 [3] | TGI [3] | GI50 [4] | TGI [4] | GI50 [5] | TGI [5] | TGI [6] | TGI [7] | TGI [8] | TGI [9] | GI50 [6] | GI50 [8] | GI50 [9]
1 | CCNCCCn1c2c(c3ccc(Cl)cc3c1=O)C(=O)c1cc(OC)cnc1-2 | 0.542 µM | 2.4 µM | 1.48 µM | 3.31 µM | 0.0472 µM | 16.8 µM | 0.859 µM | 2.78 µM | 1.03 µM | 2.43 µM |  |  |  |  |  |  | 
2 | O=[N+]([O-])c1ccc2sc(C=Nc3cnccn3)cc2c1 |  |  |  | > 100 µM |  | > 100 µM |  | > 100 µM |  | 33.5 µM | 43.8 µM | > 100 µM | 45.5 µM | > 100 µM |  |  | 
3 | COc1ccc2c3c1OC1C(=O)C=CC4(CC2)N(C)CCC314 (centres undefined) |  | > 100 µM |  | 92.4 µM |  | > 100 µM |  | 92.8 µM |  | > 100 µM |  | > 100 µM | 33.7 µM | > 100 µM |  |  | 
4 | CC(C)CNc1nc2ncnc(N)c2[nH]1 |  | > 100 µM |  | > 100 µM |  | > 100 µM |  | > 100 µM |  | > 100 µM | > 100 µM | > 100 µM |  | > 100 µM |  |  | 
5 | O=C1NC(=O)C(C(CC(=O)c2ccc([N+](=O)[O-])cc2)c2ccccc2)C(=O)N1 (centres undefined) |  | > 100 µM |  | > 100 µM |  |  |  |  |  | 55.8 µM | > 100 µM | > 100 µM | > 100 µM | > 100 µM |  |  | 
6 | O=C1CCCCC/C1=C\c1ccc([N+](=O)[O-])cc1 |  |  |  | > 100 µM |  | 59.9 µM |  | > 100 µM |  | > 100 µM | 94.4 µM | > 100 µM | 92.9 µM | 34.5 µM |  |  | 
7 | O=C(N/N=C/C=C/c1ccc([N+](=O)[O-])o1)c1cc2ccccc2cc1O | 1.06 µM | 2.77 µM | 3.35 µM | 10.7 µM | 0.933 µM | 5.02 µM | 2.64 µM | 9.48 µM | 0.412 µM | 1.77 µM | 11.3 µM |  | 7.69 µM | 3.73 µM | 1.43 µM | 0.308 µM | 0.981 µM
8 | Nc1ccc(S(=O)(=O)c2ccc(NCN3C(=O)NC(=O)C(=O)C3=O)cc2)cc1 |  | > 100 µM |  | > 100 µM |  | > 100 µM |  | > 100 µM |  | > 100 µM |  | > 100 µM | > 100 µM | > 100 µM |  |  | 
9 | Cc1cc(S(=O)(=O)N/C(=C(\C#N)C(=O)c2ccc(Cl)cc2)[n+]2ccc(N(C)C)cc2)c([S-])cc1Cl |  | > 100 µM |  | > 100 µM |  | > 100 µM |  |  |  | > 100 µM | > 100 µM | > 100 µM | > 100 µM | > 100 µM |  |  | 
10 | NC(=O)NNc1nc(-c2ccccc2)cs1 |  | > 100 µM |  | > 100 µM |  | > 100 µM |  | > 100 µM |  | > 100 µM |  |  | > 100 µM | > 100 µM |  |  | 
11 | Cc1ccc2c(=O)cc(-c3ccc(Cl)s3)[nH]c2n1 |  | > 100 µM |  | > 100 µM |  | > 100 µM |  | > 100 µM |  | > 25.7 µM | 0.989 µM |  | > 76.2 µM | > 100 µM |  |  | 
12 | CC(=O)OCC1OC(SC2=N/C(=C\c3ccc(Br)s3)C(=O)N2CN2CCOCC2)C(OC(C)=O)C(OC(C)=O)C1OC(C)=O (centres undefined) |  | > 100 µM |  | 72.1 µM |  | 34.3 µM |  | 97.4 µM |  |  | 12.8 µM | 47.7 µM | 34.8 µM | 46.9 µM |  |  | 

Reference: PubChem BioAssay (NCI)
